One test concerns A549. In words: Antiproliferative activity against human A549 cells measured after 72 hrs by MTT assay. The class given is functional, cell-based. To be noted: A549, 72 h. A general note: Tetrazolium assays rely on reduction of a dye to a coloured formazan, in cell work by metabolically active cells.
A further test deals with 4T1. In words: Antiproliferative activity against mouse 4T1 cells measured after 72 hrs by MTT assay. The format is functional, cell-based. Particulars: 4T1, 72 h.
The next test deals with HT-1080. In words: Antiproliferative activity against human HT-1080 cells measured after 72 hrs by MTT assay. To be noted: HT-1080, 72 h. The class given is functional, cell-based.
A further test deals with MGC-803. In words: Antiproliferative activity against human MGC-803 cells measured after 72 hrs by MTT assay. The format is functional, cell-based. Particulars: MGC-803, 72 h.
Test [1] deals with T1, Phospholipid hydroperoxide glutathione peroxidase GPX4 (Homo sapiens) (UniProt P36969).
T1 sequence (whole entry): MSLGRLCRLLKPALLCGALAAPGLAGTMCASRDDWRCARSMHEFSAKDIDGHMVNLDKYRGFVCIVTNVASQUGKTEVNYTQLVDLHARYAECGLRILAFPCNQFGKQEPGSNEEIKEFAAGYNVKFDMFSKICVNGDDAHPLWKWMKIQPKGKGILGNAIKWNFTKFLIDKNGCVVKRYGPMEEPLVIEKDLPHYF
In words: Inhibition of GPX4 activity in human HT-1080 cells assessed as down regulation of GPX4 level at 2 uM measured after 24 hrs by Western blotting analysis. The class given is cell-based. Background: A western blot detects proteins with antibodies after separation by electrophoresis.

Our source for the IC50 and inhibition values is ChEMBL document CHEMBL6114971, “Design, synthesis and biological evaluation of benzo[b]thiophene analogues as novel ferroptosis inhibitor that inhibit fibrosarcoma cell proliferation” (Bioorg Med Chem, 2025).

Calls of active or inactive are those of the source. The calls are words filed in the database; no cut-off is given here.

As usually defined, the IC50 is the point on the concentration scale where inhibition reaches its midpoint. Turning to `COc1cc(N(Cc2ccoc2)C(=O)c2noc(C)c2[N+](=O)[O-])cc(OC)c1OC`, the IC50 in the test with A549, in the test on 4T1, in the test with HT-1080 and in the test on MGC-803 was > 20 µM throughout.
Take `Cc1onc(C(=O)N(Cc2csc3ccccc23)c2ccc(F)cc2)c1[N+](=O)[O-]`: the IC50 was > 20 µM in the test on A549, 10.2 µM with 4T1, > 20 µM in the test on HT-1080 and > 20 µM with MGC-803.
On to `O=C(CCl)N(Cc1csc2ccccc12)c1ccc(F)cc1`, for which the IC50 was > 20 µM in the test on A549, > 20 µM in the test on 4T1, 12.3 µM with HT-1080 and 13.4 µM in the test on MGC-803.
On to `COc1ccc(N(Cc2csc3ccccc23)C(=O)CCl)cc1Cl`, for which the IC50 in the test on A549 was > 20 µM; with 4T1, 7.77 µM; with HT-1080, 3.99 µM; in the test on MGC-803 it was > 20 µM.
In the case of `O=C(CCl)N(Cc1c[nH]c2ccccc12)c1ccc(F)cc1`, the IC50 in the test with A549 is 16 µM; in the test with 4T1, > 20 µM; in the test on HT-1080, 7.21 µM; in the test with MGC-803, 9.09 µM.
In the same order, the values of `O=C(CCl)N(Cc1csc2ccccc12)c1ccccc1` are > 20 µM, > 20 µM, 11.2 µM and 10.3 µM.
In the same order, the values of `O=C(CCl)N(Cc1ccoc1)c1ccc(F)cc1` are > 20 µM, 12.1 µM, 6.06 µM and 16.7 µM.
For `O=C(CCl)N(Cc1cc2ccccc2[nH]1)c1ccccc1` the same measures were > 20 µM, > 20 µM, 15.3 µM and 13.8 µM.
As to `COc1ccc(N(Cc2cc3ccccc3[nH]2)C(=O)CCl)cc1`, the IC50 was > 20 µM in the test on A549, 18.8 µM in the test on 4T1, 11.8 µM with HT-1080 and > 20 µM in the test with MGC-803.
Take `O=C(CCl)N(Cc1ccccc1)Cc1csc2ccccc12`: the IC50 is > 20 µM with A549, 8.52 µM with 4T1, > 20 µM with HT-1080 and > 20 µM in the test on MGC-803.
With `O=C(CCl)N(Cc1csc2ccccc12)c1cccc(C(F)(F)F)c1`, the IC50 with A549 was 19.3 µM; in the test on 4T1, > 20 µM; in the test on HT-1080, 11.1 µM; in the test with MGC-803 it was 7.95 µM.
For `Cc1onc(C(=O)N(Cc2csc3ccccc23)c2ccccc2)c1[N+](=O)[O-]` the same measures were > 20 µM, > 20 µM, > 20 µM and > 20 µM.
In the same order, the values of `O=C(CCl)N(Cc1c[nH]c2ccccc12)c1ccccc1` are > 20 µM, > 20 µM, 7.86 µM and 13.2 µM.
In the same order, the values of `CCOc1ccccc1-n1c(C(C)N2CCN(C(=O)COc3ccc(Cl)cc3)CC2)nc2ccccc2c1=O` (stereo not given) [ERASTIN] are > 20 µM, 12.7 µM, 3.54 µM and > 20 µM.
With `COc1ccc(N(Cc2csc3ccccc23)C(=O)CCl)cc1`, the IC50 in the test on A549 is > 20 µM; in the test on 4T1, > 20 µM; in the test with HT-1080 it was 14 µM; in the test on MGC-803, 16.9 µM.
`COc1cc(N(Cc2ccc3ccccc3n2)C(=O)c2noc(C)c2[N+](=O)[O-])cc(OC)c1OC`: the IC50 is 18.9 µM in the test on A549, 12.9 µM in the test on 4T1, > 20 µM in the test on HT-1080 and > 20 µM in the test on MGC-803.
As for `O=C(CCl)N(Cc1ccsc1)c1ccc(F)cc1`, the IC50 was > 20 µM in the test with A549, > 20 µM in the test with 4T1, 5.21 µM in the test with HT-1080 and 15.1 µM with MGC-803.
Consider `O=C(CCl)N(Cc1cc2ccccc2s1)c1ccc(F)cc1`, for which the half-inhibitory concentration (IC50) in the test on A549 is > 20 µM; in the test with 4T1 it was > 20 µM; in the test on HT-1080, 10.4 µM; with MGC-803, 7.09 µM.
For the compound `O=C(CCl)N(Cc1cc2ccccc2[nH]1)c1ccc(F)cc1`, the IC50 with A549 is > 20 µM; with 4T1 it was 12.4 µM; with HT-1080, 9.26 µM; in the test with MGC-803, 7.32 µM.
In the same order, the values of `O=C(CCl)N(Cc1ccoc1)c1ccccc1` are > 20 µM, 14.1 µM, 14.2 µM and > 20 µM.
In the same order, the values of `COc1ccc(N(Cc2cc3ccccc3s2)C(=O)CCl)cc1OC` are 16.9 µM, > 20 µM, 8.98 µM and 1.8 µM.
For the compound `O=C(CCl)N(Cc1cc2ccccc2s1)c1cccc(C(F)(F)F)c1`, the IC50 in the test with A549 was > 20 µM; with 4T1, 17.8 µM; in the test with HT-1080 it was 13.6 µM; in the test with MGC-803, 12 µM.
As to `COc1cc(N(Cc2ccoc2)C(=O)CCl)cc(OC)c1OC`, the IC50 with A549 is > 20 µM; in the test with 4T1, 5.97 µM; in the test on HT-1080, 4.21 µM; with MGC-803, > 20 µM.
As to `COc1ccc(N(Cc2cc3ccccc3s2)C(=O)CCl)cc1`, the IC50 was 18.3 µM with A549, > 20 µM in the test on 4T1, > 20 µM in the test on HT-1080 and 10.1 µM with MGC-803. The inhibition result in test [1] is “inactive”.
For `COc1ccc(N(Cc2c[nH]c3ccccc23)C(=O)CCl)cc1`, the IC50 with A549 is > 20 µM; in the test with 4T1, 15.8 µM; with HT-1080, 12.4 µM; with MGC-803 it was 11.7 µM.
For `COc1ccc(N(Cc2c[nH]c3ccccc23)C(=O)CCl)cc1OC` the same measures were 16.7 µM, > 20 µM, 15 µM and 7.19 µM.
Turning to `COc1cc(N(Cc2csc3ccccc23)C(=O)c2noc(C)c2[N+](=O)[O-])cc(OC)c1OC`, the IC50 with A549 is > 20 µM; in the test with 4T1, 10.2 µM; in the test with HT-1080, > 20 µM; in the test on MGC-803, > 20 µM.
On to `COc1cc(N(Cc2ccsc2)C(=O)c2noc(C)c2[N+](=O)[O-])cc(OC)c1OC`, for which the IC50 in the test on A549 is > 20 µM; in the test on 4T1, 14.4 µM; in the test on HT-1080, > 20 µM; in the test on MGC-803, > 20 µM.
Turning to `O=C(CCl)N(Cc1ccsc1)c1ccccc1`, the 50% inhibitory concentration (IC50) with A549 was > 20 µM; in the test on 4T1 it was 7.34 µM; in the test with HT-1080, 4.73 µM; in the test on MGC-803, 19.8 µM.
For `COc1ccc(N(Cc2csc3ccccc23)C(=O)CCl)cc1OC` the same measures were 15.2 µM, > 20 µM, 4.22 µM and 2.42 µM.
In the same order, the values of `O=C(CCl)N(Cc1cc2ccccc2s1)c1ccccc1` are 15.4 µM, > 20 µM, 18 µM and 6.73 µM.
